# Like-named read-outs stand apart in the source and are kept apart here.
# Columns and labels:
# [1] = racemic Inversine 2.5 mg BID, spinal cord injury subjects; cited from earlier work
# [2] = biological target: T1, human α3β4 channels (Homo sapiens, UniProt P30926+P32297); test: Use-dependent inhibition of human α3β4 channels expressed in CHO cells (Dynaflow electrophysiology); format: cell-based
# T1 construct: host or cells: CHO cells
# Method: There was an assumption that the dependence on the number of co-applications would be the most relevant to clinical concentrations, since upon the time of exposure in vivo, the number of open channels could reach substantial numbers; perhaps due to channel spontaneous opening, flickering, and endogenous transmitter release as a result of brain activity. All experiments were performed using a conventional Dynaflow (Cellectricon Inc.) electrophysiological system. Dynaflow settings: To achieve continuous exposure to the drug we used following Dynaflow chip loading. An example of standard chip loading for use-dependent experiments with example for 30 μM ACh and 0.1 μM of TC-05231 (racemic mecamylamine). For the following experiments, ACh always consisted of 30 μM and concentrations of compounds were, 0.03, 0.1, 0.3 and 1.0 (μM). FIG. 13 illustrates the settings.
# Applications were performed by positioning the cell in front of channel #1 for 1 second, followed by channel #3, then back to channel #1 by rapidly moving the Dynaflow chip, which consisted of both the laminar flow from the channels and the entire bath solution. The additional channels between control and ACh-containing channel were used: (1) to provide the needed space for an additional washout to avoid contaminating the control channels with the agonist solution; and (2) to allow for the necessary amount of time for the Dynaflow stage to reach its optimum scanning speed.
# 3.1. Establishment of recording baseline: First, pipette with cells moved to channel #3. Then cells were exposed to ACh by moving cells to channel #1 for 1 second and back to channel #3. This movement of cells was repeated 10 times at 30 second intervals;
# 3.2. Collection data on use-dependent inhibition: After establishment of stable baseline, cells were moved to channel #6 and exposed to a test compound for 30 sec. Then cells were moved to channel #8 for 1 second and back to channel #6 for 30 seconds (total 10 times with intervals 30 seconds); and 3.3. To test reversibility of block (washout): repeat step 1. Note: with this chip setting, during repeated application of acetylcholine plus test compound, there was no interruption in application of compounds. For all calculations, peak current amplitude was normalized to the peak current amplitude evoked by the 10th application of acetylcholine. Experimental Results
# [3] = tested on: bladder function in conscious rats; test: Intravesical model in conscious rats, first study (UROsphere), cystometry; format: in vivo, rat; settings: tolterodine 10 μM, TC-5213 1 and 10 μM, hexamethonium 10 μM, TC-5214 0.1, 1 and 10 μM
# Description: (1) In a first study (performed by UROsphere), female Sprague Dawley rats (200-270 g) from Charles River France, housed in 3-4 rats per cage were anesthetized with isoflurane (1.5-3%). […], a polyethylene catheter was implanted in the bladder through the dome and exteriorized at the scapular level. Each rat was housed individually after surgery. The cystometry is depicted in FIG. 2. This is the first known experiment using the intravesical model in conscious rats to test dexmecamylamine for potential efficacy in treating OAB.
# The effects of dosing dexmecamylamine (also referred to as TC-5214 and as TI-11179), at doses of 0.1, 1, and 10 μM are depicted in FIG. 4.
# The effects of dosing hexamethonium (10 μM) and tolterodine (10 μM) are depicted in FIG. 5.
# [4] = biological target: NMDA receptor NR1a-NR2A (Homo sapiens, UniProt Q05586+Q12879); test: Glutamate-evoked currents at NR1a-NR2A receptors in Xenopus oocytes (two electrode voltage-clamp); format: cell-based; settings: for recovery following wash-out: after sustained exposure
# NMDA receptor NR1a-NR2A, sequence (Q12879 23-1464, other chains not shown): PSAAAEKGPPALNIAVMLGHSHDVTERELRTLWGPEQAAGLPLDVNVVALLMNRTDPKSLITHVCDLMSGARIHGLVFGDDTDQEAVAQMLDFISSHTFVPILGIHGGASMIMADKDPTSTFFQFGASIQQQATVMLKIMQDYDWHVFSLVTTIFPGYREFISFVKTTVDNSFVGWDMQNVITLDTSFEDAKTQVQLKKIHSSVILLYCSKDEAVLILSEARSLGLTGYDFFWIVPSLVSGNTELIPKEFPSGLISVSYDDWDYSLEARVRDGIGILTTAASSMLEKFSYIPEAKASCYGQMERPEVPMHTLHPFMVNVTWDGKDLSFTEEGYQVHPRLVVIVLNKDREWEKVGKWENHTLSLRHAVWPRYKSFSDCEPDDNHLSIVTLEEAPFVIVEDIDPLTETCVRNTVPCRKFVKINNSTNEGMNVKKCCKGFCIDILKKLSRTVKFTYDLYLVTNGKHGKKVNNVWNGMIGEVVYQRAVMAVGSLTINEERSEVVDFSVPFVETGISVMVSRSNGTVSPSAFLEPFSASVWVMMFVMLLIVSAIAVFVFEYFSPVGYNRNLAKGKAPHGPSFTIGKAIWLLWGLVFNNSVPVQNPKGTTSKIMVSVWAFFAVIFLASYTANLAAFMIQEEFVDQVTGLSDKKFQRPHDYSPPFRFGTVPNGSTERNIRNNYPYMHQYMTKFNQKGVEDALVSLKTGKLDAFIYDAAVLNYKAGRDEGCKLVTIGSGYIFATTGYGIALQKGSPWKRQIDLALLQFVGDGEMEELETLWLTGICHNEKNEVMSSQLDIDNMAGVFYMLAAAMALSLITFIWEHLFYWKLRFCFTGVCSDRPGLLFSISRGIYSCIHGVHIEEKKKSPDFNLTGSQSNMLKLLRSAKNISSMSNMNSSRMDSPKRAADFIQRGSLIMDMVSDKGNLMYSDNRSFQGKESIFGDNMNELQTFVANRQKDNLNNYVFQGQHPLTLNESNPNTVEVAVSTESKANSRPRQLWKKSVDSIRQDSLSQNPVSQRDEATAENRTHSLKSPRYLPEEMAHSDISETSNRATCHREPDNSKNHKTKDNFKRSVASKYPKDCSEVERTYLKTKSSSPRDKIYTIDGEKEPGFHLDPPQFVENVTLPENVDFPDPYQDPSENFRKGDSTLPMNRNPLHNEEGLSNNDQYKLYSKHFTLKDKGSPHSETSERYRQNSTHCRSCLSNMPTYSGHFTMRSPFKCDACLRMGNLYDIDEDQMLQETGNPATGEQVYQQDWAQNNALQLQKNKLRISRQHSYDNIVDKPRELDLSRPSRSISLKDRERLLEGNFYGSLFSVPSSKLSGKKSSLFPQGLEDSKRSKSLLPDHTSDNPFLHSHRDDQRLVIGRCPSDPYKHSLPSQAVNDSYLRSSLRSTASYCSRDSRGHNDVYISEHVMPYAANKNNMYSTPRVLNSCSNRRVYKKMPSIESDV
# Method: All experiments were carried out at receptors expressed in Xenopus oocytes using the method of cDNA expression. Currents evoked by glutamate were recorded using the standard two electrode voltage-clamp configuration (TVEC). Xenopus oocytes were prepared and injected using standard procedures.
# Briefly, ovaries are harvested from Xenopus Laevis females that have been deeply anesthetized and pithed following the animal rights rule from the Geneva canton. A small piece of ovary is isolated for immediate preparation while the remaining part is placed at 4° C. in a sterile Barth solution containing in mM NaCl 88, KCl 1, NaHCO3 2.4, HEPES 10, MgSO4.7H2O 0.82, Ca(NO3)2.4H2O 0.33, CaCl2.6H2O 0.41, at pH 7.4, and supplemented with 20 μg/ml of kanamycine, 100 unit/ml penicillin and 100 μg/ml streptomycin. On the second day following dissociation, oocytes are injected with 2 ng of cDNA per oocyte containing the NR1a-NR2A or NR1a-NR2B using an automated injector (Hogg et al., J. Neurosci. Methods, 2008). […] Cells were held at −80 mV. Data were filtered at 10 Hz, captured at 100 Hz and analyzed using HiQ proprietary data acquisition and analysis software running under Matlab (Mathworks Inc.).
# Oocytes expressing the NR1a-NR2A or NR1a-NR2B receptors were challenged at periodic intervals with a glutamate test pulse. Test drug was then applied during a sustained period and its effects monitored by measuring the amplitude and time course of the glutamate evoked currents.
# Experiments were carried out with the NR1a-NR2A and NR1a-NR2B at least in triplicate. Positive reference compounds (ketamine and MK-801) were tested using the same protocol.
# To further evaluate effects of TC-5214, experiments using sustained exposure to this compound followed by a recovery period were carried out at NR1a-NR2A and NR1a-NR2B receptors. Measurements were made with (nM) 0, 3, 10, 30, 100, 300, TC-5214 and recovery monitored during 10 minutes. In addition, the same experimental protocol will be used with cells in control conditions to assess the stability of the measurements. Effects were measured in at least three cells.
# A use-dependent protocol was used to identify non-competitive inhibition of the receptors. Cells expressing the NMDA receptors were tested for their sensitivity to TC-5214 at 30 nM, using the same protocol as described above. Cells from the same batch were tested in parallel using the same incubation time with an identical concentration of TC-5214 (30 nM) but in absence of pulses during the incubation time with the compound. Two glutamate pulses were applied at the end of the incubation time, and recovery monitored as for the control conditions.
# [5] = TC-5213 28-day repeated oral toxicity study in rats; format: in vivo, rat
# Method: Eighty rats (40/sex) were assigned to 4 groups of 10/sex/group. Test article in purified water or water (vehicle) alone were administered once daily via oral gavage at a dose volume of 10 mL/kg. The dose levels were 0, 1, 10, and 50 mg/kg/day. Animals were given TC-5213-23 orally (gavage) for 28 days except those given the test article at 50 mg/kg from Day 1 to 7, followed by a dose of 40 mg/kg/day on the subsequent 21 days. The dose levels were calculated based on the free base form of the test article.
# [6] = tested on: nicotinic receptors expressed in rat urinary bladder epithelial cells; settings: intravesical; nicotine 0.05 and 1 μM, hexamethonium 10 and 100 μM, choline 10 and 100 μM; cited from earlier work
# [7] = tested on: bladder function in anesthetized rats; test: Intravesical model in anesthetized rats (increased bladder contraction frequency), cystometry; format: in vivo, rat; settings: 10 μM intravesical
# Method: Female Sprague Dawley rats (200-290 g) from Charles River France, housed in 3-4 rats per cage were anesthetized with urethane (1.2 g/kg) s.c., 3 mL/kg). A polyethylene catheter was implanted into the bladder through the dome. Ureters were tied and cut. Intravesical infusion periods with saline followed by an intravesical infusion period with one of the test compounds, hexamethonium (10 μM) or dexmecamylamine (1 and 10 μM), are depicted in FIG. 7.
# The intravesical anesthetized rat model is a model of increased bladder contraction frequency. The model is a “simplified” well established model used to evaluate OAB agents, recognizing that there are decreased inputs from cortical centers. This is the first known experiment using the intravesical anesthetized rat model of increased bladder contraction frequency to test dexmecamylamine for potential efficacy in treating OAB.
# [8] = 50 mg/kg/day oral, first week, after three to seven doses
# T1 sequence (P32297 32-505): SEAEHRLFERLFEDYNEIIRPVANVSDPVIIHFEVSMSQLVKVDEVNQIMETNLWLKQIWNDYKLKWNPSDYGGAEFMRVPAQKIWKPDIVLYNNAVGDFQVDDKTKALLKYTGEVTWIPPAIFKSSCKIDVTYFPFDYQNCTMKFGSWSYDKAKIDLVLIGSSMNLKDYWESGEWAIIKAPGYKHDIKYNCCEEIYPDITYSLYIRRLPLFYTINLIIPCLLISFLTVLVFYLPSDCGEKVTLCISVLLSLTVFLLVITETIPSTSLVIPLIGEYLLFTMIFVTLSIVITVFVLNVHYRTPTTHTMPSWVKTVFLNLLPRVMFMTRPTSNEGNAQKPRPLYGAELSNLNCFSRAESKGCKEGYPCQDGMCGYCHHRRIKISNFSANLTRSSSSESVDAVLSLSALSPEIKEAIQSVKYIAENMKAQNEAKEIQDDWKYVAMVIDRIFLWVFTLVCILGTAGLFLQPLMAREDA
# T1 sequence (P30926 22-498): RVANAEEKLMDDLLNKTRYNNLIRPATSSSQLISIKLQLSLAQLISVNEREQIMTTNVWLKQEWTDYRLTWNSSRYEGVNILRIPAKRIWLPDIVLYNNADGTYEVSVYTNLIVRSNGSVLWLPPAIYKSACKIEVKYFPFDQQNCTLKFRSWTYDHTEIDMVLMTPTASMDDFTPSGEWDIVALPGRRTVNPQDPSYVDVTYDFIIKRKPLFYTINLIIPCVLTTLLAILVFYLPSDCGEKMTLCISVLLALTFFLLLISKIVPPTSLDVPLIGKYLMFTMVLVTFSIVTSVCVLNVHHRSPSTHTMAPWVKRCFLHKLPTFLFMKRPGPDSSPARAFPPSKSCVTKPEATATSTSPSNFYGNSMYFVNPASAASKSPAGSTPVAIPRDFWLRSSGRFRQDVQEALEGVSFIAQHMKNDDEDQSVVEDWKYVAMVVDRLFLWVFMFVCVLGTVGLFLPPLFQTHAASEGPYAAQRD
smiles,measurement,setting,value
"CNC1(C)C2CCC(C2)C1(C)C.Cl (racemic) [TC-5231, N,2,3,3-tetramethylbicyclo[2.2.1]heptan-2-amine hydrochloride, reference compound]",bladder electric potential (amplitude of contraction),[1],decrease in bladder electric potential (amplitude of contraction)
same,Inhibition by (%),"[2]; 100 nM compound, after 10 co-applications of 30 uM Ach and compound, hydrochloride",25% ± 7%
same,activity at 0.03 µM,"[2]; CHO, 30 nM compound + 30 μM ACh, successive grid rows = co-applications 1 to 10, control = 100, read-out: peak current amplitude normalized to 10th ACh application, use-dependent inhibition box",99.3%
same,activity at 0.1 µM,"[2]; CHO, 100 nM compound + 30 μM ACh, successive grid rows = co-applications 1 to 10 at 30 s intervals, control = 100, read-out: peak current amplitude normalized to 10th ACh application, use-dependent inhibition box",94.5%
same,inhibition at 0.1 µM,"[2]; CHO, 100 nM compound with acetylcholine, read-out: inhibition of human α3β4 receptor (asymptotes to the curve, FIG. 14)",20%
same,inhibition at 0.1 µM,"[2]; CHO, 100 nM compound, after 10 co-applications of 30 uM Ach and compound, read-out: Inhibition by (%)",24.8%
same,recovery (%),"[2]; after 100 nM compound, following 10 application of Ach (30 uM) alone",105% ± 11%
same,recovery / persistence of inhibition after wash out,"[2]; after 30 and 100 nM compound, agonist alone",full recovery
Cc1ccc(O)c([C@H](CCN(C(C)C)C(C)C)c2ccccc2)c1 [tolterodine],significant effects in cystometry,[3],significant effects
"CNC1(c2ccccc2Cl)CCCCC1=O (stereo not shown) [ketamine, reference compound]",recovery following wash-out,[4],clear evidence for recovery
"CN[C@]1(C)[C@H]2CC[C@H](C2)C1(C)C [TC-5213, exo-R-mecamylamine]","distended urinary bladder, full of urine, in early dead animals: females",[5]; 50 mg/kg/day oral,2
same,"distended urinary bladder, full of urine, in early dead animals: males",[5]; 50 mg/kg/day oral,3
same,"early deaths, females",[5]; [8],5/10
same,"early deaths, males",[5]; [8],4/10
same,"mortality, organ weight and microscopic changes",[5]; 50→40 mg/kg/day daily oral,"resulted in mortality, organ weight and/or microscopic changes"
same,No-Observed-Effect-Level (NOEL),"[5]; 28 days oral, males and females",1 mg/kg/day
same,opthalmological examinations,"[5]; rat, in vivo",No test article related changes
same,clinical pathology changes,"[5]; rat, in vivo, 40 mg/kg/day","slight increases in neutrophils; slight decreases in lymphocyte and platelets; slight increases in ALT, AST, and calcium"
same,organ weights at necropsy,"[5]; rat, in vivo, 40 mg/kg/day","decreased organ weights of prostate gland, seminal vesicles and thymus"
same,significant effects in cystometry,[3],significant effects
CN1CCCC1c1cccnc1 (stereo not shown) [nicotine],significant effects on nicotinic receptors expressed in rat urinary bladder epithelial cells,[6],significant effects
"C[C@]12N[C@H](Cc3ccccc31)c1ccccc12 [MK-801, reference compound]",recovery following wash-out,[4],little evidence of recovery
same,inhibition by positive control,"[4]; sustained exposure, glutamate test pulses",nearly complete inhibition
C[N+](C)(C)CCCCCC[N+](C)(C)C [hexamethonium],significant effects on nicotinic receptors expressed in rat urinary bladder epithelial cells,[6],significant effects
same,changes in the frequency of bladder contraction,[7],meaningful changes
